Measured values taken from ChEMBL document CHEMBL5518215, “Unlocking Antibacterial Potential: Key-Site-Based Regulation of Antibacterial Spectrum of Peptides” (J Med Chem, 2024).

Tests used:
[1] = test system: Escherichia coli; test: Antimicrobial activity against Escherichia coli 25922 assessed as bacterial killing measured after 16 hrs incubation; format: functional
[2] = test system: Enterococcus faecalis; test: Antimicrobial activity against Enterococcus faecalis 29212 assessed as bacterial killing measured after 16 hrs incubation; format: functional
[3] = test system: Bacillus cereus; test: Antimicrobial activity against Bacillus cereus 1.932 assessed as bacterial killing measured after 16 hrs incubation; format: functional
[4] = test system: Erythrocyte; test: Hemolytic activity in human RBC at effective concentration measured after 1 hr by microplate reader analysis; format: toxicity, cell-based
[5] = test system: Bacillus cereus; test: Antimicrobial activity against Bacillus cereus 1.932 assessed as absence bacterial growth measured after 18 to 24 hrs incubation by NCCLS method; format: functional; settings: time 18-24 hrs
[6] = test system: Salmonella typhimurium; test: Antimicrobial activity against Salmonella typhimurium 14028 assessed as absence bacterial growth measured after 18 to 24 hrs incubation by NCCLS method; format: functional, Salmonella enterica subsp. enterica serovar Typhimurium; settings: Salmonella enterica, time 18-24 hrs
[7] = Antimicrobial activity against Salmonella pullorum C7913 assessed as absence bacterial growth measured after 18 to 24 hrs incubation by NCCLS method; format: functional, Salmonella enterica subsp. enterica serovar Pullorum; settings: Salmonella enterica, time 18-24 hrs
[8] = test system: Escherichia coli; test: Antimicrobial activity against Escherichia coli 25922 assessed as absence bacterial growth measured after 18 to 24 hrs incubation in presence of NaCl by NCCLS method; format: functional; settings: time 18-24 hrs
[9] = Antimicrobial activity against Salmonella pullorum C7913 assessed as bacterial killing measured after 16 hrs incubation; format: functional, Salmonella enterica subsp. enterica serovar Pullorum; settings: Salmonella enterica
[10] = test system: Staphylococcus aureus; test: Antimicrobial activity against Methicillin-resistant Staphylococcus aureus 43300 assessed as bacterial killing measured after 16 hrs incubation; format: functional
[11] = Cytotoxicity against human HEK-293T cells assessed as cell survival rate measured after 8 hrs by MTT assay; format: toxicity, cell-based
[12] = test system: Escherichia coli; test: Antimicrobial activity against Escherichia coli 25922 assessed as absence bacterial growth measured after 18 to 24 hrs incubation in presence of 50% serum by NCCLS method; format: functional; settings: time 18-24 hrs
[13] = test system: Staphylococcus epidermidis; test: Antimicrobial activity against Staphylococcus epidermidis 12228 assessed as absence bacterial growth measured after 18 to 24 hrs incubation by NCCLS method; format: functional; settings: time 18-24 hrs
[14] = test system: Listeria monocytogenes; test: Antimicrobial activity against Listeria monocytogenes 1.10753 assessed as absence bacterial growth measured after 18 to 24 hrs incubation by NCCLS method; format: functional; settings: time 18-24 hrs
[15] = test system: Escherichia coli; test: Antimicrobial activity against Escherichia coli K88 assessed as absence bacterial growth measured after 18 to 24 hrs incubation by NCCLS method; format: functional; settings: time 18-24 hrs
[16] = test system: Staphylococcus aureus; test: Antimicrobial activity against Staphylococcus aureus 29213 assessed as bacterial killing measured after 16 hrs incubation; format: functional
[17] = test system: Escherichia coli; test: Antimicrobial activity against Escherichia coli 25922 assessed as absence bacterial growth measured after 18 to 24 hrs incubation in presence of FeCl3 by NCCLS method; format: functional; settings: time 18-24 hrs
[18] = test system: Escherichia coli; test: Antimicrobial activity against Escherichia coli K88 assessed as bacterial killing measured after 16 hrs incubation; format: functional
[19] = Cytotoxicity against porcine IPEC-J2 cells assessed as cell survival rate measured after 8 hrs by MTT assay; format: toxicity, cell-based, Sus scrofa; settings: pig
[20] = test system: Pseudomonas aeruginosa; test: Antimicrobial activity against Pseudomonas aeruginosa 27853 assessed as bacterial killing measured after 16 hrs incubation; format: functional
[21] = test system: Staphylococcus aureus; test: Antimicrobial activity against Staphylococcus aureus 29213 assessed as absence bacterial growth measured after 18 to 24 hrs incubation by NCCLS method; format: functional; settings: time 18-24 hrs
[22] = test system: Enterococcus faecalis; test: Antimicrobial activity against Enterococcus faecalis 29212 assessed as absence bacterial growth measured after 18 to 24 hrs incubation by NCCLS method; format: functional; settings: time 18-24 hrs
[23] = test system: Escherichia coli; test: Antimicrobial activity against Escherichia coli 25922 assessed as absence bacterial growth measured after 18 to 24 hrs incubation by NCCLS method; format: functional; settings: time 18-24 hrs
[24] = test system: Escherichia coli; test: Antimicrobial activity against Escherichia coli 25922 assessed as absence bacterial growth measured after 18 to 24 hrs incubation in presence of NH4Cl by NCCLS method; format: functional; settings: time 18-24 hrs
[25] = test system: Acinetobacter baumannii; test: Antimicrobial activity against Acinetobacter baumannii 1.6769 assessed as bacterial killing measured after 16 hrs incubation; format: functional
[26] = test system: Staphylococcus aureus; test: Antimicrobial activity against Staphylococcus aureus 25923 assessed as bacterial killing measured after 16 hrs incubation; format: functional
[27] = test system: Escherichia coli; test: Antimicrobial activity against Escherichia coli 25922 assessed as absence bacterial growth measured after 18 to 24 hrs incubation in presence of 25% serum by NCCLS method; format: functional; settings: time 18-24 hrs
[28] = test system: Staphylococcus aureus; test: Antimicrobial activity against Methicillin-resistant Staphylococcus aureus 43300 assessed as absence bacterial growth measured after 18 to 24 hrs incubation by NCCLS method; format: functional; settings: time 18-24 hrs
[29] = test system: Salmonella typhimurium; test: Antimicrobial activity against Salmonella typhimurium 14028 assessed as bacterial killing measured after 16 hrs incubation; format: functional, Salmonella enterica subsp. enterica serovar Typhimurium; settings: Salmonella enterica
[30] = test system: Escherichia coli; test: Antimicrobial activity against Escherichia coli 25922 assessed as absence bacterial growth measured after 18 to 24 hrs incubation in presence of KCl by NCCLS method; format: functional; settings: time 18-24 hrs
[31] = test system: Salmonella typhimurium; test: Antimicrobial activity against Salmonella typhimurium C7731 assessed as bacterial killing measured after 16 hrs incubation; format: functional, Salmonella enterica subsp. enterica serovar Typhimurium; settings: Salmonella enterica
[32] = test system: Pseudomonas aeruginosa; test: Antimicrobial activity against Pseudomonas aeruginosa 27853 assessed as absence bacterial growth measured after 18 to 24 hrs incubation by NCCLS method; format: functional; settings: time 18-24 hrs
[33] = test system: Acinetobacter baumannii; test: Antimicrobial activity against Acinetobacter baumannii 1.6769 assessed as absence bacterial growth measured after 18 to 24 hrs incubation by NCCLS method; format: functional; settings: time 18-24 hrs
[34] = test system: Escherichia coli; test: Antimicrobial activity against Escherichia coli 25922 assessed as absence bacterial growth measured after 18 to 24 hrs incubation in presence of ZnCl2 by NCCLS method; format: functional; settings: time 18-24 hrs
[35] = test system: Escherichia coli; test: Antimicrobial activity against Escherichia coli 25922 assessed as absence bacterial growth measured after 18 to 24 hrs incubation in presence of 12.5% serum by NCCLS method; format: functional; settings: time 18-24 hrs
[36] = test system: Listeria monocytogenes; test: Antimicrobial activity against Listeria monocytogenes 1.10753 assessed as bacterial killing measured after 16 hrs incubation; format: functional
[37] = test system: Escherichia coli; test: Antimicrobial activity against Escherichia coli 25922 assessed as absence bacterial growth measured after 18 to 24 hrs incubation in presence of MgCl2 by NCCLS method; format: functional; settings: time 18-24 hrs
[38] = Hemolytic activity in human RBC at effective concentration at 128 uM measured after 1 hr by microplate reader relative to control; format: toxicity, cell-based, Erythrocyte; settings: human red blood cells (erythrocytes), read-out: Activity
[39] = Cytotoxicity against mouse RAW264.7 cells assessed as cell survival rate measured after 8 hrs by MTT assay; format: toxicity, cell-based
[40] = test system: Salmonella typhimurium; test: Antimicrobial activity against Salmonella typhimurium C7731 assessed as absence bacterial growth measured after 18 to 24 hrs incubation by NCCLS method; format: functional, Salmonella enterica subsp. enterica serovar Typhimurium; settings: Salmonella enterica, time 18-24 hrs
[41] = test system: Staphylococcus aureus; test: Antimicrobial activity against Staphylococcus aureus 29213 assessed as absence bacterial growth measured after 18 to 24 hrs incubation by NCCLS m; format: functional; settings: time 18-24 hrs
[42] = test system: Staphylococcus epidermidis; test: Antimicrobial activity against Staphylococcus epidermidis 12228 assessed as bacterial killing measured after 16 hrs incubation; format: functional

H-LKLWLKGGKLWLKGGKLWLKG-NH2
MBC [1]: 16 µM
MBC [2]: > 32 µM
MBC [3]: > 32 µM
HC10 [4]: > 128 µM
MIC [5]: > 32 µM
MIC [6]: > 32 µM
MIC [7]: 2 µM
MIC [8]: > 32 µM
MBC [9]: 2 µM
MBC [10]: > 32 µM
IC50 at 8 h [11]: > 64 µM
MIC [12]: > 32 µM
MIC [13]: > 32 µM
MIC [14]: > 32 µM
MIC [15]: 1 µM
MBC [16]: > 32 µM
MIC [17]: 8 µM
MBC [18]: 1 µM
IC50 at 8 h [19]: 33.4 µM
MBC [20]: 32 µM
MIC [21]: > 32 µM
MIC [22]: > 32 µM
MIC [23]: 4 µM
MIC [24]: 8 µM
MBC [25]: 16 µM
MBC [26]: > 32 µM
MIC [27]: > 32 µM
MIC [28]: > 32 µM
MBC [29]: > 32 µM
MIC [30]: 8 µM
MBC [31]: > 32 µM
MIC [32]: 32 µM
MIC [33]: 16 µM
MIC [34]: 8 µM
MIC [35]: 32 µM
MBC [36]: > 32 µM
MIC [37]: > 32 µM
hemolysis at 1 h, 128 µM [38]: < 10%
IC50 at 8 h [39]: > 64 µM
MIC [40]: > 32 µM
MIC [41]: > 32 µM
MBC [42]: > 32 µM

H-MKLWLKGGKLWLKGGKLWLKG-NH2
MBC [1]: 4 µM
MBC [2]: > 32 µM
MBC [3]: > 32 µM
HC10 [4]: 128 µM
MIC [5]: > 32 µM
MIC [6]: 16 µM
MIC [7]: 2 µM
MIC [8]: 16 µM
MBC [9]: 2 µM
MBC [10]: > 32 µM
IC50 at 8 h [11]: > 64 µM
MIC [12]: > 32 µM
MIC [13]: > 32 µM
MIC [14]: > 32 µM
MIC [15]: 1 µM
MBC [16]: > 32 µM
MIC [17]: 4 µM
MBC [18]: 2 µM
IC50 at 8 h [19]: 41 µM
MBC [20]: > 32 µM
MIC [21]: > 32 µM
MIC [22]: > 32 µM
MIC [23]: 4 µM
MIC [24]: 4 µM
MBC [25]: 16 µM
MBC [26]: > 32 µM
MIC [27]: 32 µM
MIC [28]: > 32 µM
MBC [29]: 16 µM
MIC [30]: 4 µM
MBC [31]: 32 µM
MIC [32]: > 32 µM
MIC [33]: 8 µM
MIC [34]: 4 µM
MIC [35]: 32 µM
MBC [36]: > 32 µM
MIC [37]: > 32 µM
hemolysis at 1 h, 128 µM [38]: < 10%
IC50 at 8 h [39]: > 64 µM
MIC [40]: 8 µM
MIC [41]: > 32 µM
MBC [42]: > 32 µM
